± gives the expanded uncertainty stated by the source.
Assay: mn = molality of the nth substance listed, in mol/kg
Details: Liquid, Vibrating tube method

[Br-].[Br-].[Zn+2] [zinc bromide] + CCO
mass density (293.13 K, 1123 kPa, m1 = 0.4384): 858.07 ± 0.62 kg/m3
mass density (293.13 K, 1223 kPa, m1 = 0.9305): 929.75 ± 0.62 kg/m3
mass density (293.13 K, 5128 kPa, m1 = 0.4384): 861.43 ± 0.63 kg/m3
mass density (293.13 K, 9704 kPa, m1 = 0.4384): 865.15 ± 0.63 kg/m3
mass density (293.13 K, 9924 kPa, m1 = 0.9305): 937.03 ± 0.62 kg/m3
mass density (293.14 K, 1141 kPa, m1 = 1.887): 1060.17 ± 0.62 kg/m3
mass density (293.14 K, 4877 kPa, m1 = 0.9305): 932.86 ± 0.62 kg/m3
mass density (293.14 K, 5033 kPa, m1 = 1.887): 1063.5 ± 0.62 kg/m3
mass density (293.14 K, 5064 kPa, m1 = 0.3043): 841.35 ± 0.63 kg/m3
mass density (293.14 K, 9847 kPa, m1 = 1.887): 1067.49 ± 0.62 kg/m3
mass density (293.14 K, 10023 kPa, m1 = 0.05681): 807.27 ± 0.64 kg/m3
mass density (293.14 K, 14682 kPa, m1 = 0.4384): 869.05 ± 0.63 kg/m3
mass density (293.14 K, 14840 kPa, m1 = 0.9305): 940.94 ± 0.62 kg/m3
mass density (293.14 K, 14855 kPa, m1 = 1.887): 1071.5 ± 0.62 kg/m3
mass density (293.14 K, 20011 kPa, m1 = 0.9305): 944.89 ± 0.62 kg/m3
mass density (293.14 K, 30124 kPa, m1 = 0.3043): 860.11 ± 0.66 kg/m3
mass density (293.14 K, 34814 kPa, m1 = 0.9305): 955.31 ± 0.63 kg/m3
mass density (293.14 K, 39888 kPa, m1 = 0.9305): 958.57 ± 0.63 kg/m3
mass density (293.14 K, 39952 kPa, m1 = 0.05681): 828.27 ± 0.7 kg/m3
mass density (293.15 K, 1045 kPa, m1 = 0.3043): 838 ± 0.63 kg/m3
mass density (293.15 K, 1235 kPa, m1 = 0.05681): 800.05 ± 0.63 kg/m3
mass density (293.15 K, 1523 kPa, m1 = 1.49): 1007.63 ± 0.62 kg/m3
mass density (293.15 K, 5024 kPa, m1 = 0.05681): 803.22 ± 0.64 kg/m3
mass density (293.15 K, 5032 kPa, m1 = 1.49): 1010.62 ± 0.62 kg/m3
mass density (293.15 K, 10123 kPa, m1 = 0.3043): 845.43 ± 0.63 kg/m3
mass density (293.15 K, 10214 kPa, m1 = 1.49): 1014.92 ± 0.62 kg/m3
mass density (293.15 K, 15624 kPa, m1 = 0.05681): 811.63 ± 0.65 kg/m3
mass density (293.15 K, 15624 kPa, m1 = 1.49): 1019.23 ± 0.62 kg/m3
mass density (293.15 K, 19877 kPa, m1 = 0.4384): 872.96 ± 0.64 kg/m3
mass density (293.15 K, 19914 kPa, m1 = 1.887): 1075.41 ± 0.62 kg/m3
mass density (293.15 K, 20035 kPa, m1 = 1.49): 1022.63 ± 0.62 kg/m3
mass density (293.15 K, 20124 kPa, m1 = 0.3043): 853.06 ± 0.65 kg/m3
mass density (293.15 K, 24809 kPa, m1 = 0.4384): 876.51 ± 0.64 kg/m3
mass density (293.15 K, 25007 kPa, m1 = 0.9305): 948.56 ± 0.62 kg/m3
mass density (293.15 K, 25014 kPa, m1 = 1.49): 1026.32 ± 0.62 kg/m3
mass density (293.15 K, 25232 kPa, m1 = 1.887): 1079.35 ± 0.63 kg/m3
mass density (293.15 K, 25412 kPa, m1 = 0.05681): 818.77 ± 0.67 kg/m3
mass density (293.15 K, 29867 kPa, m1 = 0.4384): 880 ± 0.65 kg/m3
mass density (293.15 K, 29915 kPa, m1 = 0.9305): 952.01 ± 0.62 kg/m3
mass density (293.15 K, 29924 kPa, m1 = 1.49): 1029.82 ± 0.62 kg/m3
mass density (293.15 K, 29995 kPa, m1 = 1.887): 1082.75 ± 0.63 kg/m3
mass density (293.15 K, 34624 kPa, m1 = 1.49): 1033.04 ± 0.62 kg/m3
mass density (293.15 K, 34775 kPa, m1 = 0.4384): 883.24 ± 0.65 kg/m3
mass density (293.15 K, 35015 kPa, m1 = 0.05681): 825.19 ± 0.69 kg/m3
mass density (293.15 K, 35078 kPa, m1 = 1.887): 1086.23 ± 0.64 kg/m3
mass density (293.15 K, 35624 kPa, m1 = 0.3043): 863.74 ± 0.67 kg/m3
mass density (293.15 K, 39932 kPa, m1 = 1.49): 1036.53 ± 0.62 kg/m3
mass density (293.16 K, 1293 kPa, m1 = 0.1696): 817.98 ± 0.63 kg/m3
mass density (293.16 K, 5239 kPa, m1 = 0.1696): 821.27 ± 0.63 kg/m3
mass density (293.16 K, 9897 kPa, m1 = 0.1696): 825.03 ± 0.64 kg/m3
mass density (293.16 K, 14684 kPa, m1 = 0.1696): 828.75 ± 0.64 kg/m3
mass density (293.16 K, 15201 kPa, m1 = 0.3043): 849.37 ± 0.64 kg/m3
mass density (293.16 K, 19951 kPa, m1 = 0.1696): 832.68 ± 0.65 kg/m3
mass density (293.16 K, 20035 kPa, m1 = 0.05681): 814.92 ± 0.66 kg/m3
mass density (293.16 K, 30348 kPa, m1 = 0.1696): 839.91 ± 0.67 kg/m3
mass density (293.16 K, 35296 kPa, m1 = 0.1696): 843.12 ± 0.68 kg/m3
mass density (293.16 K, 39385 kPa, m1 = 0.4384): 886.15 ± 0.66 kg/m3
mass density (293.16 K, 39747 kPa, m1 = 1.887): 1089.29 ± 0.64 kg/m3
mass density (293.16 K, 39967 kPa, m1 = 0.1696): 846 ± 0.69 kg/m3
mass density (293.16 K, 39985 kPa, m1 = 0.3043): 866.49 ± 0.67 kg/m3
mass density (293.17 K, 24971 kPa, m1 = 0.1696): 836.26 ± 0.66 kg/m3
mass density (293.17 K, 25845 kPa, m1 = 0.3043): 857.16 ± 0.65 kg/m3
mass density (293.17 K, 30025 kPa, m1 = 0.05681): 821.93 ± 0.68 kg/m3
mass density (298.14 K, 5021 kPa, m1 = 0.9305): 928.53 ± 0.62 kg/m3
mass density (298.14 K, 5024 kPa, m1 = 0.4384): 857.08 ± 0.63 kg/m3
mass density (298.14 K, 5036 kPa, m1 = 0.05681): 799.14 ± 0.64 kg/m3
mass density (298.14 K, 5036 kPa, m1 = 0.1696): 816.98 ± 0.63 kg/m3
mass density (298.14 K, 15024 kPa, m1 = 1.887): 1066.84 ± 0.62 kg/m3
mass density (298.14 K, 15106 kPa, m1 = 0.4384): 865.31 ± 0.64 kg/m3
mass density (298.14 K, 20014 kPa, m1 = 0.3043): 849.06 ± 0.65 kg/m3
mass density (298.14 K, 25032 kPa, m1 = 0.9305): 944.53 ± 0.62 kg/m3
mass density (298.14 K, 25035 kPa, m1 = 0.4384): 872.78 ± 0.65 kg/m3
mass density (298.14 K, 35024 kPa, m1 = 0.05681): 821.61 ± 0.7 kg/m3
mass density (298.14 K, 39921 kPa, m1 = 0.05681): 824.72 ± 0.71 kg/m3
mass density (298.15 K, 1024 kPa, m1 = 0.9305): 925.02 ± 0.62 kg/m3
mass density (298.15 K, 1024 kPa, m1 = 1.887): 1055.01 ± 0.62 kg/m3
mass density (298.15 K, 1025 kPa, m1 = 0.4384): 853.63 ± 0.62 kg/m3
mass density (298.15 K, 1201 kPa, m1 = 0.1696): 813.7 ± 0.63 kg/m3
mass density (298.15 K, 1324 kPa, m1 = 0.05681): 795.94 ± 0.63 kg/m3
mass density (298.15 K, 1324 kPa, m1 = 1.49): 1002.7 ± 0.62 kg/m3
mass density (298.15 K, 1542 kPa, m1 = 0.3043): 834.12 ± 0.63 kg/m3
mass density (298.15 K, 5214 kPa, m1 = 1.49): 1006.13 ± 0.62 kg/m3
mass density (298.15 K, 10024 kPa, m1 = 0.4384): 861.25 ± 0.63 kg/m3
mass density (298.15 K, 10025 kPa, m1 = 0.05681): 803.29 ± 0.64 kg/m3
mass density (298.15 K, 10025 kPa, m1 = 0.1696): 821.11 ± 0.64 kg/m3
mass density (298.15 K, 10025 kPa, m1 = 0.3043): 841.24 ± 0.63 kg/m3
mass density (298.15 K, 10032 kPa, m1 = 0.9305): 932.79 ± 0.62 kg/m3
mass density (298.15 K, 10035 kPa, m1 = 1.49): 1010.24 ± 0.62 kg/m3
mass density (298.15 K, 10035 kPa, m1 = 1.887): 1062.75 ± 0.62 kg/m3
mass density (298.15 K, 15621 kPa, m1 = 1.49): 1014.82 ± 0.62 kg/m3
mass density (298.15 K, 19956 kPa, m1 = 0.05681): 811.06 ± 0.66 kg/m3
mass density (298.15 K, 20004 kPa, m1 = 0.9305): 940.76 ± 0.62 kg/m3
mass density (298.15 K, 20014 kPa, m1 = 0.1696): 828.87 ± 0.65 kg/m3
mass density (298.15 K, 20031 kPa, m1 = 1.887): 1070.82 ± 0.62 kg/m3
mass density (298.15 K, 20035 kPa, m1 = 1.49): 1018.3 ± 0.62 kg/m3
mass density (298.15 K, 25621 kPa, m1 = 0.3043): 853.17 ± 0.65 kg/m3
mass density (298.15 K, 25621 kPa, m1 = 1.49): 1022.52 ± 0.62 kg/m3
mass density (298.15 K, 29914 kPa, m1 = 0.05681): 818.2 ± 0.68 kg/m3
mass density (298.15 K, 29942 kPa, m1 = 1.887): 1078.29 ± 0.63 kg/m3
mass density (298.15 K, 29954 kPa, m1 = 1.49): 1025.66 ± 0.62 kg/m3
mass density (298.15 K, 29986 kPa, m1 = 0.1696): 835.96 ± 0.67 kg/m3
mass density (298.15 K, 30041 kPa, m1 = 0.4384): 876.29 ± 0.65 kg/m3
mass density (298.15 K, 30065 kPa, m1 = 0.9305): 948.14 ± 0.63 kg/m3
mass density (298.15 K, 34625 kPa, m1 = 1.49): 1028.92 ± 0.62 kg/m3
mass density (298.15 K, 34985 kPa, m1 = 0.3043): 859.62 ± 0.67 kg/m3
mass density (298.15 K, 35104 kPa, m1 = 0.4384): 879.69 ± 0.66 kg/m3
mass density (298.15 K, 39924 kPa, m1 = 1.49): 1032.44 ± 0.62 kg/m3
mass density (298.15 K, 39974 kPa, m1 = 1.887): 1085.32 ± 0.64 kg/m3
mass density (298.15 K, 39985 kPa, m1 = 0.4384): 882.8 ± 0.66 kg/m3
mass density (298.15 K, 39985 kPa, m1 = 0.9305): 954.77 ± 0.63 kg/m3

Source: the NIST ThermoML archive (doi:10.1016/j.jct.2009.05.004)
